Measured values taken from US7947312B2, “Method of preparation and composition of a water soluble extract of the bioactive component of the plant species Uncaria for enhancing immune, anti-inflammatory, anti-tumor and DNA repair processes of warm blooded animals” (priority 2002, dated 2011).

Columns and labels:
IκBα = test: Western blotting of IκBα and phosphorylated IκBα in LPS-stimulated 70Z/3 cells; format: cell-based, mouse; settings: QA 2 mg/ml or PDTC 100 μM
Method: FIGS. 5C and 5D illustrate 70Z/3 cells (5×10^6) that were pre-treated with QA (2 mg/ml) or with PDTC (100 μM) as a positive control for two hours and thereafter stimulated with LPS (25 μg/ml) for the indicated time. Cytoplasmic extracts equalized for protein concentration were analyzed by western blotting using IκBα-specific antibodies. One representative experiment out of three (FIG. 5C) and one representative experiment out of two (FIG. 5D) are presented.
Preparation of cell extracts: The 70Z/3 cells were pretreated with QA (1 or 2 mg/ml) or with PDTC for 2 hours before they were stimulated with LPS for various time points. Whole cell extracts from the 70Z/3 cells (1×10^6) were prepared for analysis of the NF-κB signaling pathway. The cells were washed twice in PBS, resuspended in lysis buffer (75 mM Tris-HCl (pH 8.0), 100 mM NaCl, 5 mM KCl, 3 mM MgCl2, 2% NP-40, 1 mM PMSF and a protease inhibitor cocktail) (Roche Diagnostics Scandinavia AB) and incubated on ice for 10 min. The cell debris was pelleted and the supernatants were stored at −70° C. until Western Blot was performed.
Western blotting: Cellular extracts from 70Z/3 cells were separated on a 10% SDS polyacrylamide gel and the proteins were transferred to a nylon membrane. After blocking overnight in 5% dry fat-free milk in TBST, the membrane was incubated for 2 hrs with primary antibodies specific either to IκBα or to phosphorylated IκBα (both from Cell Signaling Technology Inc, Beverly, Mass.). The membranes were thereafter washed three times in TBST, and incubated with HRP-conjugated goat anti-rabbit antibodies (Amersham Pharmacia). The membranes were washed three times and chemoluminescence was detected using the ECL-reagent (Amersham Pharmacia) and x-ray film (CEA AB, Strängnäs, Sweden).

[1] = tested on: HL-60 human leukemic cells; test: In vitro cytotoxicity in HL-60 cells, MTT assay (Table 2); format: cell-based
Method: In Table 2, the in vitro cytotoxicity of the various components were determined in HL-60 human leukemic cells using the MTT assay and calculation of IC50 values as described in detail elsewhere. Quinic acid ester content was determined by the Bartos method (Bartos, 1980). […] The quinic acid traveling between Rf=0.2-0.3 was eluted from the TLC plates with 1% aqueous ammonia and the relative quantity estimated by absorption at 200 nm as ± being less than 0.050 and “++++” denoting the highest amount detected, with a decrease in the number of “+” signs corresponding to a decrease in the amount of QA detected.

[2] = tested on: human HL-60 leukemic cells; test: In vitro growth inhibition by QA salts in cultured HL-60 cells, MTT, 72 hr (FIG. 8); format: cell-based; settings: HL-60 cells
Method: QA was purchased from Sigma (>99%). QA salts were synthesized by neutralization with the appropriate base, i.e., NH4OH, NaOH, Ca(OH)2, Zn(OH)2, LiOH, KOH, lysine or histidine. Serial dilutions of test compounds were added to human HL-60 leukemic cells (0.05×10^6 cells/ml) in 96-well, flat bottomed microtiter plates to give final concentrations in the cultures up to 3000 μg/ml. The plates were incubated for 72 hr at 37 C, pulsed with 20 μl MTT (5 mg/ml) for 3 hr, and the color estimated spectrophotometrically at 540 nm as described previously. (Schweitzer, C M et al. Spectrophotometric determination of clonogenic capacity of leukemic cells in semisolid microtiter culture systems. Experimental Hematology 21: 573-578, 1993). IC50 values were calculated and compared based on the live/dead ratio of cells.

HL-60 W6899 cells = test: HL-60 bioassay, microculture 5 days, clonogenicity estimated by MTT assay (Table 1); format: cell-based, human; settings: parameters are approximations
Method: An assay of biological activity of C-MED-100®'s active ingredient is prepared as follows: HL-60 […] cells are exposed in microculture at 5000 cells per well (96-well plates) for 5 days at 37 ? C. in a CO2 incubator. After incubation, the cells are washed with saline and clonogenicity estimated by MTT assay.

[3] = Acid and base hydrolysis of QAL and QA measured by Bartos reaction (Table 3); format: physicochemical; settings: 500 μg/test
From the text: To further characterize the QA analogs as the active ingredients in C-MED-100® in vitro, we determined the influence of base hydrolysis on the chemistry and biological activity of C-MED-100®. QAL is in fact a cyclic ester of QA, and as such it is an example representing the general class of QA esters. Elution from silica gel with 1% ammonia were the mandated chemical conditions necessary to remove the QA analog (i.e., active ingredient) from silica gel, which in turn favored the base hydrolysis of QA esters such as QAL to QA. If so, then identification of QA after base hydrolysis from the elution of silica gel, would then be consistent with the natural occurrence in C-MED-100® of a QA ester at Rf=0.2-0.3. […] It is quite clear that either strong acid or base treatment converted QAL to QA, and left only QA remaining, thus supporting the fact that the isolation of QA from C-MED-100® after base elution from silica gel was likely to have been originally present as a QA ester.

Structure (SMILES): S=C(S)N1CCCC1 [PDTC, pyrollidine dithiocarbamate, reference compound]
- phosphorylation of IκBα (IκBα): potently inhibited
- LPS-induced breakdown of IκBα (IκBα; 2 h pretreatment): inhibits both the breakdown of IκBα and its resynthesis

Structure (SMILES): O=C1O[C@@H]2C[C@@]1(O)C[C@@H](O)[C@H]2O [QAL #1 batch syn., quinic acid lactone]
- HL-60 MTT IC50 ([1]; no base hydrolysis): 1200 µg/mL

Structure (SMILES): O=C([O-])C1(O)CC(O)C(O)[C@H](O)C1.[Na+] (some centres unmarked) [Quinic acid (QA) sodium salt]
- HL-60 MTT IC50 ([1]; no base hydrolysis): 1500 µg/mL
- in vitro cytotoxicity compared to C-MED-100 (FIG. 8) [2]: in vitro cytotoxicity comparable to that of C-MED-100®

Structure (SMILES): O=C1O[C@@H]2C[C@@]1(O)C[C@@H](O)[C@H]2O [Quinic acid lactone, quinic acid lactone]
- Bioassay after 1% aqueous ammonia IC50 HL-60 cells (HL-60 W6899 cells; after 1% aqueous ammonia): >3000 µg/mL
- Bioassay efficacy using IC50 in HL-60 cells (HL-60 W6899 cells): 80 µg/mL
- HL-60 MTT IC50 ([1]; no base hydrolysis, listed as QAL #2 batch syn.): >2300 µg/mL
- HL-60 MTT IC50 ([1]; sample treated +2 M NaOH, 2 hr): 1600 µg/mL
- % Degraded (Bartos Reaction A490 nm) ([3]; 1M NaOH): 74.1%
- % Degraded (Bartos Reaction A490 nm) ([3]; 1N HCl): 58.2%
